Source: patent US11814376B2, “Hepatitis b core protein modulators” (Assembly Biosciences, Inc., priority 2015, dated 2023)

Assays:
[1] = test system: HBV viral load in AD38 cells; experiment: Viral load production in AD38 cells, quantitative PCR of the core sequence in supernatant; assay type: cell-based; conditions: Hepatitis B virus, 144 h, 10 μM compound, 6 days at 37° C., supernatant qPCR, relative to DMSO control; read-out: AD38 Viral Load (%) (VL with cmpd/VL in DMSO control) at 10 μM
Protocol: (§1) Example 2: Assay Measuring Activity of Compounds on Viral Production in and on Viability of AD38 Cells
(§2) AD38 cells were then re-suspended with 10 mL of Treatment Medium and counted. Wells of a collagen coated 96-well NUNC microtiter plate were seeded at 50,000/well in 180 μL of Treatment Medium, and 20 μL of in treatment media with either 10% DMSO (Control) or a 10× solution of compound in 10% DMSO was added. Plates were incubated for 6 days at 37° C.
Viral load production was assayed by quantitative PCR of the core sequence. […] The PCR mixture was incubated at 45° C. for 5 minutes, then 95° C. for 10 min, followed by 40 cycles of 10 seconds at 95° C. and 20 seconds at 60° C. Viral load was quantitated against known standards by using ViiA™ 7 Software. Viral load in the supernatant from wells with treated cells were compared against viral load in supernatant from DMSO control wells (>3 per plate).

AD38 cells = experiment: Viability of AD38 cells (Promega CellTiter-Glo); assay type: cell-based; conditions: 10 μM compound, 6 days, CellTiter-Glo luminescence normalized to DMSO control (100%)
Protocol: as §1, §2
At the end of compound treatment period cell viability was assessed using a Promega CellTiter-Glo protocol. All supernatant was removed the previously treated 96-well microtiter plate, and 50 μL Tetracycline-free treatment medium (DMEM/F12 (1:1), 1× Pen/step (cat #: 30-002-CL, Mediatech, Inc), with 2% FBS, Tet-system approved (cat #: 631106, Clontech), and 1% DMSO was added back to each well. Another 50 μL of CellTiter-Glo reagent solution (Promega, G7573) was then added at room temperature and the contents mixed for 2 minutes on an orbital shaker to induce cell lysis. This was followed by incubation at room temperature for 10 minutes to stabilize the luminescent signal. The luminescence was recorded for 0.2 seconds per well on a Tecan multimode plate reader (Infinite M1000 pro). The luminescent signal from each well was normalized against that of untreated (DMSO) control wells. All results were reported percent viability (with controls being 100%).

SMILES | activity at 10 µM [1] [%] | AD38 Viability Normalized Result (cmpd/DMSO %) at 10 μM (AD38 cells) [%]
O=C(NCc1cnc(-c2ccc(O)cc2F)s1)c1ccc2c(c1)NC(=O)c1ccccc1O2 [compound 1704] | 47.6 | 96
CN(C)c1ccc(-c2ncc(CNC(=O)c3ccc4c(c3)NC(=O)c3ccccc3O4)s2)cn1 [compound 1708] | 0.8 | 90
CCc1ncc(CNC(=O)c2ccc3c(c2)NC(=O)c2ccccc2O3)s1 [compound 1558] | 0.5 | 106
CC(C)(C)NCCCOc1ccc(-c2ncc(CNC(=O)c3ccc4c(c3)NC(=O)c3ccccc3S4(=O)=O)s2)cc1 [compound 1990, N-((2-(4-(3-(tert-butylamino)propoxy)phenyl)thiazol-5-yl)methyl)-11-oxo-10, 11-dihydrodibenzo [b, f] [1, 4] thiazepine-8-carboxamide 5,5-dioxide] | 4.1 | 98
O=C(NCc1cnc(N2CCC(O)CC2)s1)c1ccc2c(c1)NC(=O)c1ccccc1O2 [compound 1865] | 1 | 94
O=C(NCc1cnc(-c2ccc(O[C@H]3CCNC3)cc2)s1)c1ccc2c(c1)NC(=O)c1ccccc1S2(=O)=O.O=C(O)C(F)(F)F [compound 11028, (S)-11-oxo-N-((2-(4-(pyrrolidin-3-yloxy)phenyl)thiazol-5-yl)methyl)-10, 11-dihydrodibenzo [b, f] [1, 4] thiazepine-8-carboxamide 5,5-dioxide TFA salt] | 5.2 | 92
NC(=O)c1ccc(-c2ncc(CNC(=O)c3ccc4c(c3)NC(=O)c3ccccc3S4(=O)=O)s2)c(F)c1 [compound 1970, N-((2-(4-carbamoyl-2-fluorophenyl)thiazol-5-yl)methyl)-11-oxo-10, 11-dihydrodibenzo [b, f] [1, 4] thiazepine-8-carboxamide 5,5-dioxide] | 1.5 | 121
COc1cc2c(cc1C(=O)NCc1cnc(-c3ccc(C#N)cc3)s1)NC(=O)c1ccccc1S2(=O)=O [1901-A, N-((2-(4-cyanophenyl)thiazol-5-yl)methyl)-7-methoxy-11-oxo-10, 11-dihydrodibenzo [b, f] [1, 4] thiazepine-8-carboxamide 5,5-dioxide] | 3 | 118
Cc1c(C(=O)NCc2cnc(-c3ccc(OCCCN(C)C)cc3)s2)ccc2c1NC(=O)c1ccccc1S2(=O)=O [C38-01] | 1.3 | 99
NCCC#Cc1ccc(-c2ncc(CNC(=O)c3ccc4c(c3)NC(=O)c3ccccc3S4(=O)=O)s2)cc1 [compound 11002, N-((2-(4-(4-aminobut-1-yn-1-yl)phenyl)thiazol-5-yl)methyl)-11-oxo-10, 11-dihydrodibenzo [b, f] [1, 4] thiazepine-8-carboxamide 5,5-dioxide] | 0.9 | 90
Cl.O=C(NCc1cnc(-c2ccc(N3CCNCC3)cc2)s1)c1ccc2c(c1)NC(=O)c1ccccc1S2(=O)=O [compound 11018, 11-oxo-N-((2-(4-(piperazin-1-yl)phenyl)thiazol-5-yl)methyl)-10, 11-dihydrodibenzo [b, f] [1, 4] thiazepine-8-carboxamide 5,5-dioxide hydrochloride] | 3.9 | 98
O=C(NCc1cnc(-c2cnc(O)nc2)s1)c1ccc2c(c1)NC(=O)c1ccccc1S2(=O)=O [compound 1671, N-((2-(2-hydroxypyrimidin-5-yl)thiazol-5-yl)methyl)-11-oxo-10, 11-dihydrodibenzo [b, f] [1, 4] thiazepine-8-carboxamide 5,5-dioxide] | 18.2 | 100
O=C(O)COc1ncc(CNC(=O)c2ccc3c(c2)NC(=O)c2ccccc2S3(=O)=O)s1 [compound 1580, 2-((5-((5,5-dioxido-11-oxo-10, 11-dihydrodibenzo [b, f] [1, 4]thiazepine-8-carboxamido)methyl)thiazol-2-yl)oxy) acetic acid] | 104 | 102
O=C(NCc1cnc(-c2ccc(OCCCN3CCCCC3)cc2)s1)c1ccc2c(c1)NC(=O)c1ccccc1S2(=O)=O [compound 1992] | 5 | 89
O=C(NCc1cnc(-c2cc(F)c(O)c(F)c2)s1)c1ccc2c(c1)NC(=O)c1ccccc1O2 [compound 1701] | 2.1 | 94
CN1CCC(COc2ccc(-c3ncc(CNC(=O)c4ccc5c(c4)NC(=O)c4ccccc4S5(=O)=O)s3)cc2)CC1.Cl [compound 11138, N-((2-(4-((1-methylpiperidin-4-yl)methoxy)phenyl)thiazol-5-yl)methyl)-11-oxo-10, 11-dihydrodibenzo [b, f] [1, 4] thiazepine-8-carboxamide 5,5-dioxide hydrochloride] | 1 | 96
Cc1c(C(=O)NCc2cnc(-n3cc(C(F)(F)F)cn3)s2)ccc2c1NC(=O)c1ccccc1S2(=O)=O [compound 11149] | 0.2 | 100
N#Cc1ccc(-c2ncc(CNC(=O)c3ccc4c(c3)NC(=O)c3ccccc3S4(=O)=O)s2)c(Cl)c1 [compound 1816] | 0.2 | 82
CC(C)CN1c2ccc(C(=O)NCc3cnc(-c4ccc(C#N)cc4F)s3)cc2NC(=O)c2ccccc21 [compound 11044] | 5.1 | 124
CN(C)c1ccc(-c2ncc(CNC(=O)c3ccc4c(c3)NC(=O)c3ccccc3S4(=O)=O)s2)cc1 [compound 1645] | 6.7 | 101
O=C(NCc1cnc(-c2ccc(SCCCN3CCOCC3)cc2)s1)c1ccc2c(c1)NC(=O)c1ccccc1S2(=O)=O [compound 11066, N-((2-(4-((3-morpholinopropyl)thio)phenyl)thiazol-5-yl)methyl)-11-oxo-10, 11-dihydrodibenzo [b, f] [1, 4] thiazepine-8-carboxamide 5,5-dioxide] | 0.4 | 104
Cl.O=C(NCc1cnc(-c2ccc(OCC3CCCNC3)cc2)s1)c1ccc2c(c1)NC(=O)c1ccccc1S2(=O)=O (stereo not drawn) [compound 1997, 11-oxo-N-((2-(4-(piperidin-3-ylmethoxy)phenyl)thiazol-5-yl)methyl)-10, 11-dihydrodibenzo [b, f] [1, 4] thiazepine-8-carboxamide 5,5-dioxide hydrochloride] | 9.7 | 104
Cl.O=C(NCc1cnc(-c2ccc(OC[C@H]3CCNC3)cc2)s1)c1ccc2c(c1)NC(=O)c1ccccc1S2(=O)=O [compound 11139, (S)-11-oxo-N-((2-(4-(pyrrolidin-3-ylmethoxy)phenyl)thiazol-5-yl)methyl)-10, 11-dihydrodibenzo [b, f] [1, 4] thiazepine-8-carboxamide 5,5-dioxide hydrochloride] | 5.5 | 104
CC(NC(=O)c1ccc2c(c1)NC(=O)c1ccccc1S2)c1cncs1 (racemic) [compound 1432, 11-oxo-N-(1-(thiazol-5-yl)ethyl)-10, 11-dihydrodibenzo [b, f] [1, 4] thiazepine-8-carboxamide] | 21.8 | 101
Cc1c(C(=O)NCc2cnc(-c3ccc(C(N)=O)cc3)s2)ccc2c1NC(=O)c1ccccc1S2(=O)=O [compound 1878, N-((2-(4-carbamoylphenyl)thiazol-5-yl)methyl)-9-methyl-11-oxo-10, 11-dihydrodibenzo [b, f] [1, 4] thiazepine-8-carboxamide 5,5-dioxide] | 1 | 103
O=C(NCc1cnc(-c2cc(F)c(O)c(F)c2)s1)c1ccc2c(c1)NC(=O)c1ccccc1S2(=O)=O [compound 1665] | 2.7 | 90
CN1CC[C@H](Oc2ccc(-c3ncc(CNC(=O)c4ccc5c(c4)NC(=O)c4ccccc4S5(=O)=O)s3)cc2)C1 [compound 11134, (S)—N-((2-(4-((1-methylpyrrolidin-3-yl)oxy)phenyl)thiazol-5-yl)methyl)-11-oxo-10, 11-dihydrodibenzo [b, f] [1, 4] thiazepine-8-carboxamide 5,5-dioxide] | 1.4 | 90
